In article PMC4460250, “Systems Pharmacology Dissecting Holistic Medicine for Treatment of Complex Diseases: An Example Using Cardiocerebrovascular Diseases Treated by TCM” (Evidence-based Complementary and Alternative Medicine : eCAM, 2015):

Legend:
[1] = in vivo
[2] = in vivo; cited from earlier work

| SMILES | Class(High: HIA value ≥0.7; Low: HIA value < 0.7) [1] | HIA(Human Intestinal Absorption) [2] |
| --- | --- | --- |
| CC(C)(C)NC[C@H](O)c1ccc(O)c(CO)c1 [Albuterol(R)] | High (key: High: HIA value ≥0.7; Low: HIA value < 0.7) | 0.83 |
| CC(C)(C)NC[C@@H](O)c1ccc(O)c(CO)c1 [Albuterol(S)] | High (key: High: HIA value ≥0.7; Low: HIA value < 0.7) | 0.83 |
| Cc1nnc2n1-c1ccc(Cl)cc1C(c1ccccc1)=NC2 [Alprazolam] | High (key: High: HIA value ≥0.7; Low: HIA value < 0.7) | 0.9 |
| C=CCc1ccccc1OC[C@H](O)CNC(C)C [Alprenolol(R)] | High (key: High: HIA value ≥0.7; Low: HIA value < 0.7) | 0.93 |
| C=CCc1ccccc1OC[C@@H](O)CNC(C)C [Alprenolol(S)] | High (key: High: HIA value ≥0.7; Low: HIA value < 0.7) | 0.93 |
| N=C(N)NC(=O)c1nc(Cl)c(N)nc1N [Amiloride] | Low (key: High: HIA value ≥0.7; Low: HIA value < 0.7) | 0.5 |
| CC[C@]1(c2ccc(N)cc2)CCC(=O)NC1=O [Aminoglutethimide(R)] | High (key: High: HIA value ≥0.7; Low: HIA value < 0.7) | 1 |
| CC[C@@]1(c2ccc(N)cc2)CCC(=O)NC1=O [Aminoglutethimide(S)] | High (key: High: HIA value ≥0.7; Low: HIA value < 0.7) | 1 |
| CCC1(CCC(C)C)C(=O)NC(=O)NC1=O [Amobarbital] | High (key: High: HIA value ≥0.7; Low: HIA value < 0.7) | 0.95 |
| COc1ccccc1OCCNC[C@H](O)c1ccc(C)c(S(N)(=O)=O)c1 [Amosulalol(R)] | High (key: High: HIA value ≥0.7; Low: HIA value < 0.7) | 1 |
| COc1ccccc1OCCNC[C@@H](O)c1ccc(C)c(S(N)(=O)=O)c1 [Amosulalol(S)] | High (key: High: HIA value ≥0.7; Low: HIA value < 0.7) | 1 |
| N#C[C@H](O[C@@H]1O[C@H](CO[C@@H]2O[C@H](CO)[C@@H](O)[C@H](O)[C@H]2O)[C@@H](O)[C@H](O)[C@H]1O)c1ccccc1 [Amygdalin(S)] | Low (key: High: HIA value ≥0.7; Low: HIA value < 0.7) | 0.05 |
| Cc1cc(=O)n(-c2ccccc2)n1C [Antipyrine] | High (key: High: HIA value ≥0.7; Low: HIA value < 0.7) | 0.97 |
| NC[C@H](CC(=O)O)c1ccc(Cl)cc1 [Baclofen(R)] | High (key: High: HIA value ≥0.7; Low: HIA value < 0.7) | 0.95 |
| NC[C@@H](CC(=O)O)c1ccc(Cl)cc1 [Baclofen(S)] | High (key: High: HIA value ≥0.7; Low: HIA value < 0.7) | 0.95 |
| N[C@H](CO)C(=O)NNCc1ccc(O)c(O)c1O [Benserazide(R)] | High (key: High: HIA value ≥0.7; Low: HIA value < 0.7) | 0.7 |
| N[C@@H](CO)C(=O)NNCc1ccc(O)c(O)c1O [Benserazide(S)] | High (key: High: HIA value ≥0.7; Low: HIA value < 0.7) | 0.7 |
| CCN(CC)CCCOC(=O)C1(c2ccccc2)CC2CCC1C2 (stereo not drawn) [Bornaprine] | High (key: High: HIA value ≥0.7; Low: HIA value < 0.7) | 1 |
| O=C1CN=C(c2ccccn2)c2cc(Br)ccc2N1 [Bromazepam] | High (key: High: HIA value ≥0.7; Low: HIA value < 0.7) | 0.84 |
| C[C@@H](NC(C)(C)C)C(=O)c1cccc(Cl)c1 [Bupropion(R)] | High (key: High: HIA value ≥0.7; Low: HIA value < 0.7) | 0.87 |
| C[C@H](NC(C)(C)C)C(=O)c1cccc(Cl)c1 [Bupropion(S)] | High (key: High: HIA value ≥0.7; Low: HIA value < 0.7) | 0.87 |
| CN(C)C(=O)O[C@H]1N=C(c2ccccc2)c2cc(Cl)ccc2N(C)C1=O [Camazepam(R)] | High (key: High: HIA value ≥0.7; Low: HIA value < 0.7) | 1 |
| CN(C)C(=O)O[C@@H]1N=C(c2ccccc2)c2cc(Cl)ccc2N(C)C1=O [Camazepam(S)] | High (key: High: HIA value ≥0.7; Low: HIA value < 0.7) | 1 |
| CC1(C)S[C@@H]2[C@H](NC(=O)C(C(=O)Oc3ccccc3)c3ccccc3)C(=O)N2[C@H]1C(=O)O (stereo partly drawn) [Carfecillin(R)] | High (key: High: HIA value ≥0.7; Low: HIA value < 0.7) | 0.99 |

| SMILES | Class(High: HIA value ≥0.7; Low: HIA value < 0.7) [1] | HIA(Human Intestinal Absorption) [2] |
| --- | --- | --- |
| CC(C)(C)NC[C@@H](O)COc1cccc2c1CCC(=O)N2 [Carteolol(R)] | High (key: High: HIA value ≥0.7; Low: HIA value < 0.7) | 0.95 |
| CC(C)(C)NC[C@H](O)COc1cccc2c1CCC(=O)N2 [Carteolol(S)] | High (key: High: HIA value ≥0.7; Low: HIA value < 0.7) | 0.95 |
| COc1ccccc1OCCNC[C@@H](O)COc1cccc2[nH]c3ccccc3c12 [Carvedilol(R)] | High (key: High: HIA value ≥0.7; Low: HIA value < 0.7) | 0.8 |
| COc1ccccc1OCCNC[C@H](O)COc1cccc2[nH]c3ccccc3c12 [Carvedilol(S)] | High (key: High: HIA value ≥0.7; Low: HIA value < 0.7) | 0.8 |
| CO/N=C(\C(=O)N[C@@H]1C(=O)N2C(C(=O)OC(C)OC(C)=O)=C(COC(N)=O)CS[C@H]12)c1ccco1 (stereo partly drawn) [Cefuroximeaxetil(R)] | Low (key: High: HIA value ≥0.7; Low: HIA value < 0.7) | 0.36 |
| OC(O)C(Cl)(Cl)Cl [Chloral_hydrate] | High (key: High: HIA value ≥0.7; Low: HIA value < 0.7) | 1 |
| O=C(O)CCCc1ccc(N(CCCl)CCCl)cc1 [Chlorambucil] | High (key: High: HIA value ≥0.7; Low: HIA value < 0.7) | 1 |
| OC[C@@H](O)COc1ccc(Cl)cc1 [Chlorphenesin(R)] | High (key: High: HIA value ≥0.7; Low: HIA value < 0.7) | 1 |
| OC[C@H](O)COc1ccc(Cl)cc1 [Chlorphenesin(S)] | High (key: High: HIA value ≥0.7; Low: HIA value < 0.7) | 1 |
| NS(=O)(=O)c1cc([C@]2(O)NC(=O)c3ccccc32)ccc1Cl [Chlorthalidone(R)] | Low (key: High: HIA value ≥0.7; Low: HIA value < 0.7) | 0.65 |
| NS(=O)(=O)c1cc([C@@]2(O)NC(=O)c3ccccc32)ccc1Cl [Chlorthalidone(S)] | Low (key: High: HIA value ≥0.7; Low: HIA value < 0.7) | 0.65 |
| CCCNC(=O)NS(=O)(=O)c1ccc(Cl)cc1 [Chorpropamide] | High (key: High: HIA value ≥0.7; Low: HIA value < 0.7) | 0.95 |
| CC(C)(Oc1ccc([C@H]2CC2(Cl)Cl)cc1)C(=O)O [Ciprofibrate(R)] | High (key: High: HIA value ≥0.7; Low: HIA value < 0.7) | 0.99 |
| CC(C)(Oc1ccc([C@@H]2CC2(Cl)Cl)cc1)C(=O)O [Ciprofibrate(S)] | High (key: High: HIA value ≥0.7; Low: HIA value < 0.7) | 0.99 |
| CN(C)CCC[C@]1(c2ccc(F)cc2)OCc2cc(C#N)ccc21 [Citalopram(R)] | High (key: High: HIA value ≥0.7; Low: HIA value < 0.7) | 1 |
| CN1C(=O)CC(=O)N(c2ccccc2)c2cc(Cl)ccc21 [Clobazam] | High (key: High: HIA value ≥0.7; Low: HIA value < 0.7) | 0.87 |
| Cc1ncsc1CCCl [Clomethiazole] | High (key: High: HIA value ≥0.7; Low: HIA value < 0.7) | 0.95 |
| O=C1CN=C(c2ccccc2Cl)c2cc([N+](=O)[O-])ccc2N1 [Clonazepam] | High (key: High: HIA value ≥0.7; Low: HIA value < 0.7) | 0.8 |
| COC(=O)[C@H](c1ccccc1Cl)N1CCc2sccc2C1 [Clopidogrel(S)] | Low (key: High: HIA value ≥0.7; Low: HIA value < 0.7) | 0.5 |
| COc1ccc2c3c1O[C@H]1[C@@H](O)C=C[C@H]4[C@@H](C2)N(C)CC[C@@]341 [Codeine] | High (key: High: HIA value ≥0.7; Low: HIA value < 0.7) | 0.93 |
| CN1C(=O)CC[C@H]1c1cccnc1 [Cotinine(S)] | High (key: High: HIA value ≥0.7; Low: HIA value < 0.7) | 0.97 |
| NS(=O)(=O)c1cc2c(cc1Cl)N[C@@H](CC1CCCC1)NS2(=O)=O [Cyclopenthiazide(R)] | High (key: High: HIA value ≥0.7; Low: HIA value < 0.7) | 1 |
| NS(=O)(=O)c1cc2c(cc1Cl)N[C@H](CC1CCCC1)NS2(=O)=O [Cyclopenthiazide(S)] | High (key: High: HIA value ≥0.7; Low: HIA value < 0.7) | 1 |
| COc1cccc2c1C(=O)c1c(O)c3c(c(O)c1C2=O)C[C@@](O)(C(C)=O)C[C@@H]3O[C@H]1C[C@H](N)[C@H](O)[C@H](C)O1 [Daunorubicin] | Low (key: High: HIA value ≥0.7; Low: HIA value < 0.7) | 0.1 |
